We go through five molecules from article PMC10671697, “Drug-Induced Conformational Dynamics of P-Glycoprotein Underlies the Transport of Camptothecin Analogs” (International Journal of Molecular Sciences, 2023).

Values joined by “and” are separate entries in the source; they are usually repeats but may differ in a detail not shown here. Equal values may be shown once. Read-outs that look alike come from different tables or passages of the source.

Series [1] concerns the target T1, wild-type mouse Pgp (MDR3) (Mus musculus, UniProt P21447). How it is done: Acrylamide quenching of protein fluorescence was used to probe drug-induced Pgp conformational changes indirectly. For this assay, a solution containing 1 µM of Pgp reconstituted into liposomes was titrated with acrylamide. The preparation was carried out in Chifflet buffer (pH 7.4) supplemented with 2 mM DTT. The assay was performed both in the presence and absence of ligand(s). […] The fluorescence intensities were corrected for dilution, background, and inner filter effects using Equation (3). A Stern–Volmer plot of Fo(corrected)/F(corrected) versus the concentration of acrylamide added was generated. The slope of the curve, an indicator of the degree of quenching, is related to the Stern–Volmer’s constant (Ksv) by Equation (4). (4) Focorrected/Fcorrected=1+KsvQ where [Q] is the concentration of the quencher, acrylamide.

The conditions of series [2]: second-line chemotherapy, versus TPT; cited from earlier work.
Series [3] concerns human tumor xenograft models. Conditions: different human tumor xenograft models, versus TPT; cited from earlier work. For orientation: A xenograft is tissue or cells of one species grown in another, often human tumour cells in immunodeficient mice.
Series [4] addresses T1, wild-type mouse Pgp (MDR3). How it is done:
Atomic force microscopy (AFM) has been adapted for analyzing protein dynamics and structure, which has enabled the determination of conformational changes induced by ligands. In this study, Pgp reconstituted into liposomes was diluted in imaging buffer (20 mM HEPES, 100 mM NaCl, and 5 mM MgCl2; pH 7.4) to 100 nM. About 90 µL droplets of the diluted Pgp solution were deposited on cleaned […] (Corning, Corning, NY, USA), followed by 30 min of incubation at 25 °C. This step caused the proteoliposomes to rupture, forming a planar lipid bilayer on top of the mica surface. The samples were rinsed at least five times using the buffer exchange technique, wherein 90 µL of buffer was utilized. Next, AFM imaging of the EC-side and C-side domains of Pgp protrusions above the lipid bilayer was performed as previously described. For each of the selected CPTs used in this study, AFM imaging of the ligand-free Pgp (apoPgp) was performed first, then ligand was added, and imaging was repeated in nominally the same area. […] Only membrane-external protrusions that could be positively assigned as either EC or C-side domain features of Pgp were analyzed. All the AFM images were obtained in an imaging buffer at about 30 °C in tapping mode with biolever mini tips (BL-AC40TS, Olympus, Tokyo, Japan) installed on a commercial instrument (Asylum Research Cypher, Santa Barbara, CA, USA). The tip-sample force was kept below 100 pN to minimize the probability of protein distortion. The AFM images were analyzed with custom software written in Igor Pro 7 (Wavemetrics, Portland, OR, USA), as described previously. Kernel density estimation with Epanechnikov kernels in Igor Pro 7 software was used to generate smoothed histograms for further analysis. The histograms were fitted with a summation of Gaussian distributions. The Bayesian information criterion was used to select the best model after fitting with 1–5 Gaussian distributions as described previously (see Supporting Information).
The source holds these as a separate data set.

Series [5] concerns the target T1, wild-type mouse Pgp (MDR3). The conditions noted are these: for Decrease of protein fluorescence from the initial fluorescence: ex 295 nm; for Decrease of protein fluorescence: saturating AMPPNP.
The target in series [6] is T1, wild-type mouse Pgp (MDR3). From the text: For a molecule that binds to the receptor, only the protons within a distance of 5 Å from the saturated protein receive noticeable saturation transfer. The saturation transferred from the receptor to the bound ligands can be detected upon dissociation as a saturation transfer difference (STD). The observed degree of saturation transferred inversely correlates with the distance between the ligand and the receptor and reflects the degree of interaction. Due to the high lipophilicity of most Pgp substrates, there is a high possibility of non-specific interactions between the ligands and liposomes used, which can interfere with the STD NMR spectrum observed. The STD NMR spectrum of the drug in the presence of liposomes was performed and subtracted from the STD ^1H NMR spectrum of the ligand in the presence of proteins reconstituted into liposomes to yield a STDD. […] All NMR experiments were carried out at 25 °C (unless otherwise stated) on a Varian INOVA 600 MHz NMR spectrometer installed with a 1H-detect broadband probe {HX}.
The control samples were identically prepared with liposomes instead of Pgp reconstituted in liposomes. […] The difference between the on-resonance and the off-resonance created the STD ^1H NMR spectrum. A control experiment consisting of liposomes and drugs was obtained under identical conditions and subtracted from the ^1H STD NMR spectrum of the reconstituted Pgp sample with the drug to generate the STDD ^1H NMR spectrum. […] The STDD amplification factor was calculated using Equation (5) below. (5) STDD Amplication Factor=l/PΔl/Io where Io is the amplitude of the ^1H NMR peaks, l is the ligand concentration, and P is the protein concentration.
This is another data set of the same source.

Series [7] concerns the target T1, wild-type mouse Pgp (MDR3). Briefly: biochemical.
For series [8] the following is noted: versus TPT; cited from earlier work.
Another series has as its system LS513 cells. Conditions: LS513 cells treated with BCRP and MRP2 inhibitors, versus SN-38; cited from earlier work.
The mark [9] stands for this setting: 800 µM drug, 1 µM Pgp in liposomes, 25 °C.

T1 sequence (P21447 whole entry): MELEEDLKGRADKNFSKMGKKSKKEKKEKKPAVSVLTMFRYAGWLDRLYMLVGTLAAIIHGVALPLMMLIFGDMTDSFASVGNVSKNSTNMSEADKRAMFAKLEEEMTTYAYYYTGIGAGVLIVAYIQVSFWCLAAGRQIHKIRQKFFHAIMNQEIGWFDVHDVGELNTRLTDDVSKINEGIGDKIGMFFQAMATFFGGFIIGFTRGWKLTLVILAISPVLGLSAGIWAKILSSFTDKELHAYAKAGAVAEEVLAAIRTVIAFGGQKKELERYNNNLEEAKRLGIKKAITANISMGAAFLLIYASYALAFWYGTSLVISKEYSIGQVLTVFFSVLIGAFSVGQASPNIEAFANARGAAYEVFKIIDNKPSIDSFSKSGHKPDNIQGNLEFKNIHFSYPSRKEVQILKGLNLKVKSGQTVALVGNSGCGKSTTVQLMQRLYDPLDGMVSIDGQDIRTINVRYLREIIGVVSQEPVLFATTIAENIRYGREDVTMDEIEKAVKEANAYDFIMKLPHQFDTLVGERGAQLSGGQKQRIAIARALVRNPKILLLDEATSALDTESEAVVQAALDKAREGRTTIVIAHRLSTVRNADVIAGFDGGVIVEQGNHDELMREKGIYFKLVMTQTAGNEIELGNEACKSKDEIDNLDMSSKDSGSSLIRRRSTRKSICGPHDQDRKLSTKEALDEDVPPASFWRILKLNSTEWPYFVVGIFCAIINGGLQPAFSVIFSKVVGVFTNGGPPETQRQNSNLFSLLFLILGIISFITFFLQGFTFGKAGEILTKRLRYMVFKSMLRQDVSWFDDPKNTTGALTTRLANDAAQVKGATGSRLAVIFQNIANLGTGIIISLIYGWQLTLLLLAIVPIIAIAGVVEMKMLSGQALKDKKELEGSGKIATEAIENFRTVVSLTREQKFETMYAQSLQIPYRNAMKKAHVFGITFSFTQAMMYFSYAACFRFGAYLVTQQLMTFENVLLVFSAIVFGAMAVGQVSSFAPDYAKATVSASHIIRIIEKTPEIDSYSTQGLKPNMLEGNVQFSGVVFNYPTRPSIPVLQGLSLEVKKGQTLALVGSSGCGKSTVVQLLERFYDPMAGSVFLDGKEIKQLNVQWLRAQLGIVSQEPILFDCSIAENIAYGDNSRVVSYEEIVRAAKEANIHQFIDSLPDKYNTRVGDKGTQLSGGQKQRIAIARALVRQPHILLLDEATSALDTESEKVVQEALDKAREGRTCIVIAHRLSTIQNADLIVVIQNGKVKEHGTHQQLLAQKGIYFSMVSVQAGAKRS

Consider `Nc1ncnc2c1ncn2[C@@H]1O[C@H](COP(=O)([O-])OP(=O)([O-])NP(=O)([O-])[O-])[C@@H](O)[C@H]1O.[Li+].[Li+].[Li+].[Li+]` [AMPPNP, Adenosine 5′-(β,γ-imido)triphosphate lithium salt], for which the “Ksv of acrylamide quenching of Pgp fluorescence” value (“Ksv … of Pgp fluorescence” below) in series [1] (Pgp with saturating (3.2 mM) AMPPNP alone, no CPT) is 0.84 ± 0.07 M⁻¹.
Consider `CCc1c2c(nc3ccc(OC(=O)N4CCC(N5CCCCC5)CC4)cc13)-c1cc3c(c(=O)n1C2)COC(=O)[C@]3(O)CC` [IRT, Irinotecan], for which, in [1], the “Decrease in the Ksv value of apoPgp (acrylamide quenching)” value (from here on “Decrease in the Ksv value of apoPgp”) was ~ 20%; the “Ksv … of Pgp fluorescence” value was 0.83 ± 0.05 and 0.83 ± 0.05 M^−1. In addition, the “Survival rate of patients compared with TPT” value in [2] was “higher survival rate”. The “Efficacy compared with TPT” value in series [3] is listed as “greater efficacy”. Moreover, the “C-side height of tallest Pgp population in presence of drug” value (from here on “C-side height of tallest Pgp population”) in series [4] (100 µM drug, apo 76 ± 9 Å) is 70 ± 10 Å. Besides, in series [5], the “Change of affinity for Pgp in the presence of AMPPNP” value (“Change of affinity for Pgp” below) is “diminished by over threefold” and the “Stern–Volmer constant (Ksv) of drug-induced Pgp fluorescence quenching” value (from here on “Stern–Volmer constant (Ksv)”) was found to be 0.07 ± 0.01 µM⁻¹. In series [6], the “Highest STDD amplification factor” value is given as around 81.
Take `CC(=O)N[C@@H](Cc1c[nH]c2ccccc12)C(N)=O` [NATA, N-acetyl-L-tryptophanamide]: the “Ksv of acrylamide quenching of NATA fluorescence” value in series [1] (positive control, fully solvent-exposed tryptophan, no Pgp) stood at 15.43 ± 0.37 M⁻¹.
Consider `CCc1c2c(nc3ccc(O)cc13)-c1cc3c(c(=O)n1C2)COC(=O)[C@]3(O)CC` [SN-38], for which the “Ksv … of Pgp fluorescence” value in series [1] (30 µM drug, 3.2 mM AMPPNP) came out at 0.81 ± 0.08 M⁻¹; in [1] (30 µM drug, absence of AMPPNP, apoPgp 1.58 ± 0.03), 1.12 ± 0.02 M⁻¹. Besides, the “Decrease in the Ksv value of apoPgp” value in series [1] (30 µM drug, no AMPPNP (Figure 4)) is listed as ~ 28%. Besides, the “Probability density difference (∆PD) of tallest population relative to apo” value in series [4] (30 µM drug) is recorded as −1.08 × 10^7. Besides, the “C-side height of tallest Pgp population” value in [4] (30 µM drug, apo 84 ± 5 Å) worked out at 78 ± 7 Å. Besides, the Kd (commonly the constant that tells how readily two partners part at equilibrium) is 3.53 ± 1.14 µM in series [7] (absence of AMPPNP) and 13.2 ± 4.23 µM in [7] (saturating (3.2 mM) AMPPNP). In addition, the “Decrease of protein fluorescence from the initial fluorescence” value in [5] (60 µM drug, absence of AMPPNP) is around 40.6%. Moreover, in series [5] (60 µM drug), the “Decrease of protein fluorescence” value came to 38.8%. Further, the “Stern–Volmer constant (Ksv)” value in series [5] (absence of AMPPNP) was 0.28 ± 0.09 µM⁻¹; in series [5] (saturating (3.2 mM) AMPPNP), 0.076 ± 0.02 µM⁻¹. Further, the “Change of affinity for Pgp” value in series [5] (presence vs absence of AMPPNP) is reported as “diminished by over threefold”. The “Fold higher cellular retention than TPT” value in [8] is given as above 2 fold.
As for `CC[C@@]1(O)C(=O)OCc2c1cc1n(c2=O)Cc2cc3c(CN(C)C)c(O)ccc3nc2-1` [TPT, Topotecan], the “Ksv … of Pgp fluorescence” value in [1] (60 µM drug, 3.2 mM AMPPNP) came out at 0.71 ± 0.04 M⁻¹; in series [1] (60 µM drug, absence of AMPPNP, apoPgp 1.58 ± 0.03), 0.78 ± 0.06 M⁻¹. For the same molecule, in [1] (60 µM drug, no AMPPNP (Figure 4)), the “Decrease in the Ksv value of apoPgp” value is around 50%. Besides, the “Relative efflux rate, times higher than SN-38” value in the series on LS513 cells was “approximately 4 times”. For the same molecule, in series [4] (60 µM drug), the “Probability density difference (∆PD) of tallest population relative to apo” value is on record as 4.11 × 10^7. Moreover, the “C-side height of tallest Pgp population” value in series [4] (60 µM drug, apo 74 ± 9 Å) is listed as 75 ± 7 Å. The results for the Kd in series [7] (absence of AMPPNP) and in [7] (saturating (3.2 mM) AMPPNP) were 2.47 ± 0.57 µM and 16 ± 3.27 µM, respectively. Besides, in series [5] (100 µM drug, absence of AMPPNP), the “Decrease of protein fluorescence from the initial fluorescence” value is reported as “approximately 71.6%”. Further, the “Decrease of protein fluorescence” value in [5] (100 µM drug) worked out at 61.0%. The “Stern–Volmer constant (Ksv)” value in series [5] (absence of AMPPNP) worked out at 0.41 ± 0.09 µM⁻¹; in series [5] (saturating (3.2 mM) AMPPNP) it was 0.06 ± 0.01 µM⁻¹. In addition, the “Change of affinity for Pgp” value in series [5] (presence vs absence of AMPPNP) is “diminished by over threefold”. For the same molecule, the “Average STDD amplification factor” value in [6] (setting [9]) is “around 45”. In [6] (setting [9]), the “Highest STDD amplification factor” value is reported as “approximately 133”.
